From publication PMC11174489, “In Vitro Activation of Human Adrenergic Receptors and Trace Amine-Associated Receptor 1 by Phenethylamine Analogues Present in Food Supplements” (Nutrients, 2024)

Legend:
Assay type in all cases: cell-based
[1] = target: T1, human adrenergic receptor (ADR) α1A (Homo sapiens, UniProt P35348); experiment: ADRα1A activation, Ca2+ influx (Fluo-8) in overexpressing chem-1 cells; conditions: Chem-1
T1 construct: host or cells: rat chem-1 cells
T1 sequence (P35348 1-466): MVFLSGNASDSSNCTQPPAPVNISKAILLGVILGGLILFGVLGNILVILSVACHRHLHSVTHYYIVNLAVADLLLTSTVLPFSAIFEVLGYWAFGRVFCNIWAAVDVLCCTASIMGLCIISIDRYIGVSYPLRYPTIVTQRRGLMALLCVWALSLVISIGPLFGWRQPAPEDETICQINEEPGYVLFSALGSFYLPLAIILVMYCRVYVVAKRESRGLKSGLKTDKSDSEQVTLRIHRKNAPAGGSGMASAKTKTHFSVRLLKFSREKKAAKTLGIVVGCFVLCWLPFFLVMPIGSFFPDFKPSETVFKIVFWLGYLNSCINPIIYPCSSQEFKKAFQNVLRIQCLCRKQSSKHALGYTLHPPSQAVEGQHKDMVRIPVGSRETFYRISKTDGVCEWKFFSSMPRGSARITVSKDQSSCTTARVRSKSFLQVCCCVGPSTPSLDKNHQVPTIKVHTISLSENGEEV

[2] = target: T2, human adrenergic receptor (ADR) α1B (Homo sapiens, UniProt P35368); experiment: ADRα1B activation, Ca2+ influx (Fluo-8) in overexpressing chem-1 cells
T2 construct: host or cells: rat chem-1 cells
T2 sequence (P35368 1-520): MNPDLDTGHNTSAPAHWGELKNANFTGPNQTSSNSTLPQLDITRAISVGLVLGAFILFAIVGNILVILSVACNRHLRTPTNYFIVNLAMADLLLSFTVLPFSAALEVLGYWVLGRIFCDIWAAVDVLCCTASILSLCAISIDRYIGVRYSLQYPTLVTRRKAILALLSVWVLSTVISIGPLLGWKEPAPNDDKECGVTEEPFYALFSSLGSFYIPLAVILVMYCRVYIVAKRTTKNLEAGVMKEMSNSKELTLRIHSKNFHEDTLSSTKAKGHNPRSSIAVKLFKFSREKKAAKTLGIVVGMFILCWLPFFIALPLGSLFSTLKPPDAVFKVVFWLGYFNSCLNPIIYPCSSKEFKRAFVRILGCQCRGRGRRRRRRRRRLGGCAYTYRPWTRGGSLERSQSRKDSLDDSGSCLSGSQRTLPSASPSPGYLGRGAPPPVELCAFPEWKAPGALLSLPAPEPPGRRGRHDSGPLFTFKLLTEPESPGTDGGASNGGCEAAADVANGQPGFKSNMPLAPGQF
Excerpt: (§1) Cells overexpressing human ADRs α1A, α1B, α1D, α2A, α2B, β1 and β2 (Eurofins Discovery Services, St. Charles, MO, USA, product numbers: HTS087RTA, HTS158RTA, HTS216RTA, HTS096RTA, HTS157LRTA, HTS104RTA and HTS073RTA, respectively) were used to study the potency (EC50) and efficacy (Emax) of the selected compounds for these receptors by quantifying Ca^2+ influx upon receptor activation. ADRα1A, α1B, α1D, α2A, β1 and β2 were overexpressed in rat chem-1 cells. ADRα2B was overexpressed in HEK293 cells. The cells were seeded (10,000–50,000 cells/well) in a black 96-well plate (VWR International, Leuven, Belgium) and incubated at 37 °C and 5% CO2 for 24 h. After 24 h, the cells were washed with Hank’s balanced salt solution (HBSS) (Gibco, Paisley, UK) containing 0.35 g/L sodium bicarbonate and incubated with 5 µg/mL Fluo-8 AM in HBSS (pH 7.4) supplemented with 2.5 mM probenecid for 1 h. […] Peak tops of the obtained fluorescence response–time curves were corrected for baseline fluorescence and used to construct concentration–response relationships.
(§2) Concentration–response relationships for TAAR1 activation are presented as percentages of the maximal intracellular cAMP level induced by full the TAAR1 agonist phenethylamine and corrected for baseline cAMP accumulation. […] Experiments were run in duplicate in 7–9 independent experiments for ADR and were run in 3–5 independent experiments for TAAR1.

[3] = target: T3, human adrenergic receptor (ADR) α1D (Homo sapiens, UniProt P25100); experiment: ADRα1D activation, Ca2+ influx (Fluo-8) in overexpressing chem-1 cells
T3 construct: host or cells: rat chem-1 cells
T3 sequence (P25100 1-572): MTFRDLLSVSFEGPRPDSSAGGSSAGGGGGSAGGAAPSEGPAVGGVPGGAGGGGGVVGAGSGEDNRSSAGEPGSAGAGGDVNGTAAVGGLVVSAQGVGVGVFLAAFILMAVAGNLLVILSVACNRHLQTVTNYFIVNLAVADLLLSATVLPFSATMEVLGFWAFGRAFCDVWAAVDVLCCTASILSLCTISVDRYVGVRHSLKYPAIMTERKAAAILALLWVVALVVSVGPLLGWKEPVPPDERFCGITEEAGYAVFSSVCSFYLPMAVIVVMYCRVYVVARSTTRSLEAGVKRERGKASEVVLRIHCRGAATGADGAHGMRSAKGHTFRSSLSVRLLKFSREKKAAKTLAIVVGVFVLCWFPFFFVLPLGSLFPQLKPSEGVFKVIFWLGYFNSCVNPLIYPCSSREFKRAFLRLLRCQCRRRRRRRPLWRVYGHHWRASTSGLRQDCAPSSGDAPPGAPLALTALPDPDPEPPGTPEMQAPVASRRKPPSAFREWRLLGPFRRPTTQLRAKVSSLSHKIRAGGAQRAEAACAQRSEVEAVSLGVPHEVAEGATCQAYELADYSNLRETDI

[4] = target: T4, human adrenergic receptor (ADR) α2A (Homo sapiens, UniProt P08913); experiment: ADRα2A activation, Ca2+ influx (Fluo-8) in overexpressing chem-1 cells
T4 construct: host or cells: rat chem-1 cells
T4 sequence (P08913 1-465): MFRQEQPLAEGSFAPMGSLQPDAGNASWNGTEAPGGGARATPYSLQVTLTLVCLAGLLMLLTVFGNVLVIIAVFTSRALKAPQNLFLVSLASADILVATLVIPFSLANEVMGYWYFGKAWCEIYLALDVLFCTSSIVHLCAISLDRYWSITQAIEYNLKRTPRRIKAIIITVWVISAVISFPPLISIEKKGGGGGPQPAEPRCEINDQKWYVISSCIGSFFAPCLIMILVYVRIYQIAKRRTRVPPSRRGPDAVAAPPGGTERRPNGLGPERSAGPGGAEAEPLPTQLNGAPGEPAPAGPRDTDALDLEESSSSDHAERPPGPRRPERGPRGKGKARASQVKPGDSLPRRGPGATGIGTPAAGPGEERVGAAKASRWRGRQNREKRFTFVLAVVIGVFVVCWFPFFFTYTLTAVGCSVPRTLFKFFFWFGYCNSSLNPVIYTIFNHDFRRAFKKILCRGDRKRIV

[5] = target: T5, human adrenergic receptor (ADR) β1 (Homo sapiens, UniProt P08588); experiment: ADRβ1 activation, Ca2+ influx (Fluo-8) in overexpressing chem-1 cells; conditions: Chem-1, read-out: ADRβ1 Emax
T5 construct: host or cells: rat chem-1 cells
Excerpt: as §1, §2

[6] = target: T6, human adrenergic receptor (ADR) β2 (Homo sapiens, UniProt P07550); experiment: ADRβ2 activation, Ca2+ influx (Fluo-8) in overexpressing chem-1 cells
T6 construct: host or cells: rat chem-1 cells

[7] = Ca2+ response, chem-1 cells, average (95% confidence interval), 7–9 experiments
[8] = % of maximal signal obtained by adrenaline, average (95% CI)

T5 sequence (P08588 whole entry): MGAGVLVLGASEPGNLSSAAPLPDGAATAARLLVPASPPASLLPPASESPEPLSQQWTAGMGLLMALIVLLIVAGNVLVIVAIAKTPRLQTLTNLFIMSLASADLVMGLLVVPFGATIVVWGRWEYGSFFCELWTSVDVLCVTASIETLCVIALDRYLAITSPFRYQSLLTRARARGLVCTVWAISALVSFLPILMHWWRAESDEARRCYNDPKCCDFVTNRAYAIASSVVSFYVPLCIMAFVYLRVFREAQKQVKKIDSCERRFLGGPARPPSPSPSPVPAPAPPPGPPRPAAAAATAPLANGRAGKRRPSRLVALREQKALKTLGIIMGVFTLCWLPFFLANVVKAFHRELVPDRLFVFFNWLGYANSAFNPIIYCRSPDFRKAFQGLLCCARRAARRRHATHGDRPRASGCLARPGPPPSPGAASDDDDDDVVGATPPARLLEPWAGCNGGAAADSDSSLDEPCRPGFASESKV

| Compound | Emax [1] [%] | Emax ([2]; Chem-1, read-out: ADRα1B Emax) [%] | EC50 [3, 7] [µM] | Emax ([3]; Chem-1) [%] | Emax ([4]; Chem-1, % of maximal signal obtained by adrenaline, average (95% CI)) [%] | Emax [5] [%] | Emax ([6]; Chem-1) [%] | ADRα1B Emax [2, 8] | EC50 ([2]; Ca2+ response, chem-1 cells, average (95% confidence interval), 7–9 experiments, read-out: ADRα1B EC50) [µM] | ADRα1D Emax [3, 8] | EC50 [4, 7] [µM] | ADRβ2 Emax [6, 8] | EC50 [6, 7] [µM] |
| --- | --- | --- | --- | --- | --- | --- | --- | --- | --- | --- | --- | --- | --- |
| CNC[C@H](O)c1ccc(O)c(O)c1 [Adrenaline, adrenaline, reference compound] | 98 | 99 | 0.0017 | 99 | 105 | 99 | 104 |  |  |  |  |  |  |
| Methyltyramine |  |  |  |  |  |  |  | - | > 300 | - | > 300 | - | > 300 |
